Measured values reported in paper PMC11872463, “Identification of a group of 9-amino-acridines that selectively downregulate regulatory T cell functions through FoxP3” (iScience, 2025).
Structures can show the parent of a compound that is named as a salt. Where two headings read alike, the source gives them in different places.

Legend:
FoxP3 [1] = biological target: T1, FoxP3 (Homo sapiens, UniProt Q9BZS1); experiment: SPR, concentration-dependent binding to immobilized FoxP3 (KD not given in main text); IC50 is from AlphaScreen FoxP3-DNA competition; EMSA
T1 construct: His-FoxP3 full-length (SPR); His-FoxP3-ΔN (182-421aa) (AlphaScreen, EMSA)
T1 sequence (Q9BZS1 182-421): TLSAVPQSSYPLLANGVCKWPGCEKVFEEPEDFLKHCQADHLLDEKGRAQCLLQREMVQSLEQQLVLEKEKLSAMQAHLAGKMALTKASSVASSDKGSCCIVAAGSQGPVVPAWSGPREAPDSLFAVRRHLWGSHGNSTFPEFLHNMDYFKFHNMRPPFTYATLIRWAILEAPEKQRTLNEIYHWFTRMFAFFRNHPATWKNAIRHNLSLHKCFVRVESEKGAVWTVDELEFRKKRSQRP
Source text: SPR, concentration-dependent binding to immobilized FoxP3 (KD not printed in main text); IC50 is from AlphaScreen FoxP3-DNA competition; EMSA on FoxP3 | we confirmed the concentration-dependent binding of QDD and MP4 to immobilized FoxP3 protein (Figure S6B)

FoxP3 [2] = biological target: T1, FoxP3; experiment: biochemical; design: SPR on Biacore T200, His-FoxP3 immobilized on CM5 chip, affinity
Procedure: To explore how 9-amino acridines downregulate FoxP3, directly or indirectly, a low-molecular-weight compound screening (low molecular weight [LMW] screen) was performed using surface plasmon resonance (SPR) analysis to determine affinities between FoxP3 and all the compounds listed in Table 1. […] In contrast, we observed low or no affinity for FoxP3 with compounds that had little or no effects on FoxP3 downregulation (such as MP20 and MP25). Furthermore, we confirmed the concentration-dependent binding of QDD and MP4 to immobilized FoxP3 protein (Figure S6B) with dissociation constant (KD) values corresponding to the observed IC50 in the cell-based assay, implying that the function of 9-amino-acridine analogs on FoxP3 regulation might be due to their direct binding ability. SPR, concentration-dependent binding to immobilized FoxP3 (KD not printed in main text); IC50 is from AlphaScreen FoxP3-DNA competition; EMSA on FoxP3 | we confirmed the concentration-dependent binding of QDD and MP4 to immobilized FoxP3 protein (Figure S6B)

FoxP3 [3] = test system: T2, FoxP3; experiment: cells; design: species or system primary human CD3+ T cells; flow cytometry of FoxP3+ % in CD4+ T cells, normalized to mock (FoxP3 down-regulation); conditions: FoxP3 down-regulation in CD4+ T cells, 24 h
T2 construct: endogenous, primary CD4+ T cells
Procedure: To search for potential small molecular FoxP3 inhibitors, we screened the Prestwick library of approved drugs (1,522 compounds) for compounds that regulated the expression of FoxP3 using a novel high-throughput flow cytometry protocol. Primary CD3^+ T cells from healthy donors were treated with compounds from the Prestwick library at 10 μM for 16 h, followed by a high-throughput flow cytometry analysis measuring FoxP3% in CD4^+ T cells (for workflow, see Figure S1A). Compounds that reduced FoxP3 levels compared to DMSO were selected for further validation. The first verified hit was quinacrine dihydrochloride dihydrate (QDD), where we observed a concentration-dependent FoxP3 downregulation with an IC50 of less than 5 μM in all donors tested (Figures 1A and 1B; Table 1, group 0; Figure S2A). QDD was also confirmed to downregulate FoxP3 in Tregs by gating out CD127^+ cells in both non-stimulated and stimulated T cells (Figure S1B). […] In the first round, compounds MP2, MP3, MP4, and MP5 were identified to be working efficiently in downregulating FoxP3 levels (Table 1, group 2; Table S1; Figure S2C). […] Therefore, a small library of similar acridine and acridinone compounds (Table 1, group 3 and 4; Table S1; Figures S2D and S2E) was assembled by in-silico prediction and assessed for their effects on FoxP3 regulation. […]

| Compound | IC50 (FoxP3 [1]; read-out: IC50) | Kd (FoxP3 [2]) | IC50 (FoxP3 [1]) | IC50 (FoxP3 [3]) |
| --- | --- | --- | --- | --- |
| CCN(CC)CCCC(C)Nc1c2cc(OC)ccc2nc2cc(Cl)c(N)cc12 (centres unmarked) [MP4, 3-chloro-N9-[5-(diethylamino)pentan-2-yl]-7-methoxyacridine-2,9-diamine] | 0.37 µM | 6.9 µM | – | – |
| CCN(CC)CCCC(C)Nc1c2ccc(Cl)cc2nc2ccc(OC)cc12 (centres unmarked) [QDD, 6-chloro-N-[5-(diethylamino)pentan-2-yl]-2-methoxyacridin-9-amine dihydrate dihydrochloride] | – | 4.09 µM | 2 µM | – |
| COc1cc(NC(C)CCCN)c2ncccc2c1 (centres unmarked) [Primaquine] | – | – | – | > 100 µM |
